Assay results published in patent publication US5904857A, “4-alkyl and aryl semicarbazides as oxygen scavengers” (Nalco Chemical Company, priority 1997, dated 1999).

Legend:
[1] = Oxygen scavenger screening: dissolved O2 in effluent water (apparatus of FIG. 1); conditions: Equivalence Scavenger:O2 2:1, 250 ° F., feed pH 9.0-9.5
Protocol: The apparatus of FIG. 1 was utilized to evaluate the efficiency of various oxygen scavengers. Reference is made to FIG. 1. The feedstream was ambient temperature (22° C.) air-saturated deionized water. Air-saturation of the feedwater was maintained with a continuous purge with CO2 -free air. The pH of the feedwater was adjusted to within the range of 9.0-9.5 with reagent grade sodium hydroxide. All wetted parts were constructed from 316 stainless steel. Syringe infusion pumps were used for injection of scavenger and catalyst. A metering pump pressurized the flow to 85 psig. The first heating bath heated the water stream to about 214° F. in about 30 seconds. The water residence time in the second bath was 4.5 minutes, and the effluent temperature was 251° F. The water stream was cooled slightly below ambient temperature within a few seconds, the pressure was released, and the oxygen concentration of the effluent water was continuously monitored utilizing an Orbisphere oxygen probe at the exit sample point.
The data of Table 1 illustrate a remarkable reduction in dissolved O2 for the scavengers of this invention when utilized in conjunction with a catalyst in this temperature range.

[2] = cited from earlier work
[3] = cited from earlier work; remark: listed apart in the source
[4] = Long term stability: hydrazine concentrations in high amine formulations over weeks (procedure of Example 5); format: physicochemical
Source text: The procedure described in Example 5 was utilized to study long term stability. […] Thus, they are more advantageous than the conventional carbohydrazide treatment.

[5] = Comparative stability study: hydrazine buildup in high amine formulations over days (p-dimethylaminobenzaldehyde method, ASTM D1385-78); format: physicochemical
[6] = catalyst none, None (untreated) 7800-8300
[7] = 6% scavenger / 40% CHA (cyclohexylamine)
[8] = 6% scavenger in 40% cyclohexylamine

SMILES: NNC(=O)Nc1ccccc1 [4-phenyl semicarbazide]
- Dissolved O2 ([1]; catalyst Co): 4180 ppb
- Dissolved O2 ([1]; catalyst Cu): 164 ppb
- Dissolved O2 [1, 6]: 7480 ppb

SMILES: NN [Hydrazine, hydrazine]
- elimination of residual oxygen ([2]; Kirk-Othmer): efficiently eliminates the residual oxygen
- metal passivation ([2]; adherent protective layer of magnetite over iron surfaces): good metal passivator
- Dissolved O2 ([1]; catalyst Cu): 241 ppb
- Dissolved O2 [1, 6]: 7500 ppb
- absorption ([3]; Kirk-Othmer): readily absorbed through the mouth, skin and respiratory system
- toxicity ([3]; Kirk-Othmer): highly toxic
- corneal damage ([3]; contact with the eye): permanent corneal damage may result from contact with the eye
- high dose effects ([3]; high doses): high doses may cause convulsions and other damaging side effects
- low dose effects ([3]; low doses): Low doses may cause central nervous system depression

SMILES: NNC(=O)NN [CHz, carbohydrazide]
- Hydrazine (ppm) at 0 weeks [4, 7]: 433 ppm
- Hydrazine (ppm) at 5 weeks [4, 7]: 6300 ppm
- Hydrazine (ppm) at 0 weeks ([4]; 6% scavenger / 40% morpholine): 94 ppm
- Hydrazine (ppm) at 5 weeks ([4]; 6% scavenger / 40% morpholine): 2016 ppm
- Hydrazine (ppm) at 0 days [5, 8]: 433 ppm
- Hydrazine (ppm) at 3 days [5, 8]: 1420 ppm
- Hydrazine (ppm) at 6 days [5, 8]: 2100 ppm
- Hydrazine (ppm) at 0 days ([5]; 6% scavenger in 40% morpholine): 94 ppm
- Hydrazine (ppm) at 3 days ([5]; 6% scavenger in 40% morpholine): 280 ppm
- Hydrazine (ppm) at 6 days ([5]; 6% scavenger in 40% morpholine): 465 ppm
- Hydrazine (ppm) at 0 days ([5]; 6% scavenger, no amine): 54 ppm
- Hydrazine (ppm) at 3 days ([5]; 6% scavenger, no amine): 56 ppm
- Hydrazine (ppm) at 6 days ([5]; 6% scavenger, no amine): 59 ppm

SMILES: CCN(CC)C(=O)NN [4,4-diethylsemicarbazide, N,N-diethylsemicarbazide]
- Hydrazine (ppm) at 0 weeks [4, 7]: 114 ppm
- Hydrazine (ppm) at 5 weeks [4, 7]: 149 ppm
- Hydrazine (ppm) at 8 weeks ([4]; 6% scavenger / 40% CHA (cyclohexylamine), 8 weeks): 178 ppm
- Dissolved O2 ([1]; catalyst Co): 6500 ppb
- Dissolved O2 ([1]; catalyst Cu): 189 ppb
- Dissolved O2 [1, 6]: 7300 ppb

SMILES: CC(C)NC(=O)NN [4-isopropylsemicarbazide, N-isopropyl semicarbazide]
- Dissolved O2 ([1]; catalyst Co): 6500 ppb
- Dissolved O2 ([1]; catalyst Cu): 98 ppb
- Dissolved O2 [1, 6]: 7500 ppb
